Data published in US11690828B2, “Treatment of CNS diseases with sGC stimulators” (Cyclerion Therapeutics, Inc., priority 2016, dated 2023).

How the values were obtained:
rats [1] = experiment: Bennett model - paw pressure test; type: in vivo, rat; details: Compound I-2 p.o. 10 mg/kg; 120 minutes after treatment
Method: (§1) Paw Pressure Test. Static mechanical hyperalgesia is measured. This test requires the application of an increasing pressure on the hind paws between a flat surface and a blunt pointer. To evaluate the analgesic action of a compound, one hind paw of the animal was inflamed by an injection or injured by ligation, while the other hind paw was not injured or inflamed. The apparatus exerted a steadily increasing force on the hind paws. The reaction threshold was determined as the pressure (g) required to elicit paw withdrawal and/or vocalization. The animals were gently handled by the experimenter and static mechanical hyperalgesia were assessed two times for both hind paws.
Bennett Model. Peripheral mononeuropathy was induced by loose ligation of the sciatic nerve in anesthetized rats (Xylazine 10 mg/kg i.p., ketamine 60 mg/kg i.p.) on D−14. Briefly, the common sciatic nerve was exposed at the level of the middle of the thigh by blunt dissection through the biceps femoris. Proximal to the sciatic trifurcation, four ligatures were loosely tied around it with about 1-mm spacing. […]
Testing: 120 minutes after treatment. […] Results are expressed for each group as a percentage of activity calculated from the mean value of the vehicle-treated animals and compared to naïve animals, control paw, or cut-off value, depending on the test.

Healthy rats [2] = experiment: Healthy rats - tail flick test; type: in vivo, rat; details: Compound I-2 p.o. 10 mg/kg; 120 minutes after treatment
Method: Tail Flick Test. A radiant heat was applied on the tail. When the rat felt discomfort, it reacted by a sudden tail movement (tail flick) which automatically stopped the stimulation and the timer for the measurement by the animal reaction time or nociceptive reaction latency (period from the beginning of the stimulation until detection of the response of the animal). A cut-off was previously fixed at 10 sec in order to prevent tissue damage.
(§2) Testing: 120 minutes after treatment. N=4/model/test. Results are expressed for each group as a percentage of activity calculated from the mean value of the vehicle-treated animals and compared to naïve animals, control paw, or cut-off value, depending on the test.

Healthy rats [3] = experiment: Healthy rats - paw pressure test; type: in vivo, rat; details: Compound I-2 p.o. 10 mg/kg; 120 minutes after treatment
Method: as §1, §2

BDNF = experiment: Effect on BDNF protein in the rat dorsal striatum, quinolinic acid lesion model; type: in vivo; details: 10 mg/kg once a day for 7 days
Method: Protocol. Experimental day 1: Rats were deeply anesthetized with isoflurane and each rat received a unilateral infusion of 0.25 μl of 50 mM quinolinic acid (QA) in the dorsal striatum (12.5 nmoles of QA on the left or right hemisphere). The dorsal striatum contralateral to the QA infusion on each rat received a control infusion of 0.25 μl PBS (control side). Some animals were dosed S.C. with vehicle (n=5) or 10 mg/Kg Compound I-2 (n=6) about 30 minutes after QA infusion. Experimental days 2-8: Rats were dosed every 24 h P.O. with Vehicle or 10 mg/Kg Compound I-2. About 24 h after the last dosing of vehicle or Compound I-2, rats were anesthetized, perfused with PBS followed by perfusion with 4% Paraformaldehyde in PBS; brain tissue was collected and placed in a falcon tube covered with 4% Paraformaldehyde (PAF) in PBS for about 14 h at 4° C. and then replaced by PBS with 30% sucrose solution for about 48 h. Brain tissue was cut in 40 μm coronal slices and stored in PBS at 4° C. […] Images from the dorsomedial area around the QA lesion or equivalent area on the control hemisphere were taken using confocal fluorescence microscopy. Images were analyzed using imageJ software to determine the average BDNF intensity in NeuN positive cells.

rats [4] = experiment: Carrageenan - paw pressure test; type: in vivo, rat; details: Compound I-2 p.o. 10 mg/kg; 120 minutes after treatment
Method: as §1
Carrageenan. Induction: Three hours before assessment of the nociceptive threshold using the paw pressure test 100 μL of a 2% carrageenan suspension was injected into the plantar aspect of the right hind paw. The Paw Pressure test was then conducted as described above.
as §2

rats [5] = experiment: Kaolin - gait score; type: in vivo, rat; details: Compound I-2 p.o. 10 mg/kg; 120 minutes after treatment
Method: Kaolin. Induction: In rats, unilateral arthritis was induced by an intra-articular injection of a 10% kaolin suspension into the knee joint of the right hind paw under gas anesthesia (3.5% isoflurane/3 L/min). Gait score: The gait score will be evaluated 3 h 30 min after kaolin administration by:
2: intermittent raising of the paw
as §2

cGMP = experiment: Compound-induced cGMP in mouse brain; type: in vivo
Method: Protocol. Mice (n=9-10 per experimental condition) were dosed P.O. with vehicle (1% hydroxypropyl methyl cellulose, 0.2% Tween80, 0.5% methyl cellulose), P.O. with 10 mg/Kg of Compound I-2. Thirty minutes after dosing, under isoflurane anesthesia, each mouse was decapitated and its brain was removed and was placed into an ice-cold petri dish containing slushy dissection solution (saturated with 95% O2·5% CO2). Using an ice-cold spatula, the brain was transferred to mouse brain matrix with coronal spacing for slicing at 1 mm intervals, as schematized in the FIGURE below (not to scale, just a scheme). • ?
The sliced brain was transferred back into petri dish containing slushy dissection solution with IBMX 0.5 mM (saturated with 95% O2·5% CO2). The dorsal striatum is dissected first, followed by the hippocampus second, followed by the medial prefrontal cortex third, and lastly, the cerebellum fourth. After each region was dissected the “chunk” of tissue was immediately placed into an eppendorf which had been placed on dry ice for the previous 30 minutes. Small pieces of tissue froze very fast, within 10 seconds approximately. After all regions were placed in an eppendorf, eppendorfs were snap frozen by immersion into liquid nitrogen. The tissue samples were stored at −80 C. cGMP levels in brain were determined by LC/MS. Brain samples were homogenized in an aqueous buffer consisting of 80:20 (V/V %) water:acetic acid using an ultrasonicator probe. Brain homogenates containing sGC compounds and or cGMP were extracted from brain tissue by protein precipitation with an organic solvent containing internal standards (IS) followed by filtration and phospholipid removal using a Phenomenex® Phree™ phospholipid removal plate. Samples were analyzed using liquid chromatography (LC) with tandem mass spectrometric detection (MS/MS) using electrospray ionization. The standard curve concentrations used for quantitation of cGMP and or sGC compound(s) ranged from 0.2 to 400 ng/mL. Protein quantification of brain samples was determined using BCA protein assay kit.

## Fc1ccccc1Cn1nc(-c2nc(C(F)(F)F)n[nH]2)c2cccnc21 [Compound I-2]
Rats [1]
  % of activity vs. vehicle, Bennett model paw pressure test: 65%
Healthy rats [2]
  % of activity vs. vehicle, healthy rats tail flick test: 15%
Healthy rats [3]
  % of activity vs. vehicle, healthy rats paw pressure test: −10%
BDNF
  BDNF averaged intensity in NeuN positive cells around the QA lesion, as compared to vehicle treatment: increase
  BDNF averaged intensity in NeuN positive cells in the dorsomedial striatum without a lesion (control side), as compared to vehicle treatment: increase
Rats [4]
  % of activity vs. vehicle, carrageenan paw pressure test: 75%
Rats [5]
  % of activity vs. vehicle, kaolin gait score: 88%
cGMP; mouse cortex, 10 mg/Kg P.O., 30 minutes after dosing, vehicle 0.075
  mPFC: nM cGMP/μg protein: 0.124 nM cGMP/μg protein
cGMP; mouse, 10 mg/Kg P.O., 30 minutes after dosing, vehicle 0.033
  Hippocampus: nM cGMP/μg protein: 0.072 nM cGMP/μg protein
cGMP; mouse, 10 mg/Kg P.O., 30 minutes after dosing, vehicle 0.062
  Striatum: nM cGMP/μg protein: 0.104 nM cGMP/μg protein
cGMP; mouse, 10 mg/Kg P.O., 30 minutes after dosing, vehicle 0.364
  Cerebellum: nM cGMP/μg protein: 0.681 nM cGMP/μg protein
cGMP; mouse, acute 10 mg/Kg P.O.
  cGMP in the cerebellum versus vehicle: significant increase
  cGMP in the cortex versus vehicle: significant increase
  cGMP in the hippocampus versus vehicle: significant increase
